The text below walks through data of the OligoGym collection.

The target of this data set is HSD17B13. To be noted: ASO, HepaRG.

After the bases stand the sugars from the 5' end (letter, count) and the backbone: PS all phosphorothioate, else s phosphorothioate and o phosphodiester by linkage. Methylation of C is not given here. e = 2'-O-(2-methoxyethyl) (MOE); k = constrained ethyl (cEt); d = 2'-deoxy (DNA); m = 2'-O-methyl

Consider ATCTCTGGGACCAAGG (sugars k3 d10 k3, PS), for which the target mRNA inhibition is 0% (0.02 µM); 0% (0.078 µM); 57% (0.313 µM); 72% (1 µM); 78% (1.25 µM); 93% (5 µM).

Where the note is “1 µM”, TGACAACAGAGTTCTG (sugars k3 d10 k3, PS) returned a target mRNA inhibition of 11%.

Where the note is “1 µM”, CTGATTACAGCATCAA (sugars k3 d10 k3, PS) registered a target mRNA inhibition of 40%.

In turn, ATTGGTAAGTATTCCA (sugars k3 d10 k3, PS) gave a target mRNA inhibition (1 µM) of 50%.

For the setting “1 µM”, GATATACTGTCCCAGC (sugars k3 d10 k3, PS) showed a target mRNA inhibition of 34%.

In turn, AGGTAGCTAATGTATG (sugars k3 d10 k3, PS) yielded a target mRNA inhibition (1 µM) of 53%.

In turn, GATTGCATAAGAGCCA (sugars k3 d10 k3, PS) returned a target mRNA inhibition (0.02 µM) of 6%; a target mRNA inhibition (0.078 µM) of 31%; a target mRNA inhibition (0.313 µM) of 57%; a target mRNA inhibition (1 µM) of 82%; a target mRNA inhibition (1.25 µM) of 67%; a target mRNA inhibition (5 µM) of 58%.

For AATACGCTGAGAGTTA (sugars k3 d10 k3, PS), for the setting “1 µM”, the target mRNA inhibition worked out at 48%.

Turning to AATCAGTTTTCCTCAT (sugars k3 d10 k3, PS), the target mRNA inhibition (1 µM) is 53%.

Under “1 µM”, “ATGTGAAGAGCTGGTA (sugars kkdddddddddkekek, PS)” displayed a target mRNA inhibition of 54%.

For the setting “1 µM”, GGAGTATGACAACTGG (sugars k3 d10 k3, PS) came in with a target mRNA inhibition of 28%.

“ATAACTACAAGAGGTT (sugars kkdddddddddkekek, PS)” registered a target mRNA inhibition (1 µM) of 46%.

TCCATTGAATCTTCAA (sugars k3 d10 k3, PS) had a target mRNA inhibition (1 µM) of 57%.

Under “1 µM”, “TAGTCTTGATGTAGTG (sugars k3 d1 m1 d8 k3, PS)” returned a target mRNA inhibition of 56%.

CAGGCTGTAAGAGTCA (sugars k3 d10 k3, PS): the target mRNA inhibition (1 µM) came to 56%.

“AGAGGCTAGGGAAATC (sugars kkdddddddddkekek, PS)” had a target mRNA inhibition (1 µM) of 59%.

Turning to AAATGTCCTAGGATGT (sugars k3 d10 k3, PS), the target mRNA inhibition (1 µM) came out at 36%.

CCATTTACATATGGTG (sugars k3 d10 k3, PS): the target mRNA inhibition (1 µM) worked out at 28%.

In the case of GCATCTTAAGATACCC (sugars k3 d10 k3, PS), the target mRNA inhibition by setting is: (0.02 µM) 16%; (0.078 µM) 45%; (0.313 µM) 82%; (1 µM) 82%; (1.25 µM) 89%; (5 µM) 97%.

Turning to “TAGTATAGTTATCTTC (sugars k3 d1 m1 d8 k3, PS)”, where the note is “1 µM”, the target mRNA inhibition is 13%.

Sequence GGAAATATAGAGGGTC (sugars k3 d10 k3, PS) showed a target mRNA inhibition (1 µM) of 50%.

Regarding ATTTATTGGTATGGTA (sugars k3 d10 k3, PS), the target mRNA inhibition (1 µM) worked out at 46%.

On to CTACTTGAACAGTCTT (sugars k3 d10 k3, PS), for which the target mRNA inhibition by setting is: (0.02 µM) 8%; (0.078 µM) 23%; (0.313 µM) 49%; (1 µM) 80%; (1.25 µM) 79%; (5 µM) 97%.

In turn, CAAACTGCTACTGTGT (sugars k3 d10 k3, PS) yielded a target mRNA inhibition (1 µM) of 57%.

Turning to “TATTAGAAGTCAGCCC (sugars kkdddddddddkekek, PS)”, under “1 µM”, the target mRNA inhibition amounted to 36%.

GCTAAAAGCTCACCAA (sugars k3 d10 k3, PS) displayed a target mRNA inhibition (1 µM) of 26%.

As for GTAGGAGTAGATGATG (sugars k3 d10 k3, PS), the target mRNA inhibition (1 µM) is 7%.

For the sequence GCCAGGGAATGCTCAT (sugars k3 d10 k3, PS), the target mRNA inhibition (1 µM) was found to be 38%.

On to GACATGAGGTTTTGAT (sugars k3 d10 k3, PS), for which the target mRNA inhibition (1 µM) turned out to be 52%.

The sequence CTGTGCACTCATTCTG (sugars k3 d10 k3, PS) returned a target mRNA inhibition (1 µM) of 51%.

As for GTAGTGGGAGTCGGAT (sugars k3 d10 k3, PS), under “1 µM”, the target mRNA inhibition stood at 48%.

On to CAATAGTACTATAGTA (sugars k3 d10 k3, PS), for which, where the note is “1 µM”, the target mRNA inhibition was 14%.

Sequence TAACATTCGGCTAGGC (sugars k3 d10 k3, PS) showed a target mRNA inhibition (1 µM) of 52%.

TCACCAACGACTCCAA (sugars k3 d10 k3, PS) displayed a target mRNA inhibition (1 µM) of 19%.

In the case of “TCTCUTGACAATGGTT (sugars k3 d1 m1 d8 k3, PS)”, under “1 µM”, the target mRNA inhibition came out at 62%.

In turn, “AGTGCATCTTAAGATA (sugars kkdddddddddkekek, PS)” gave a target mRNA inhibition (1 µM) of 27%.

In turn, CTCTGGGACCAAGGAT (sugars k3 d10 k3, PS) yielded a target mRNA inhibition (1 µM) of 51%.

Take “GATAUTCTGTGGCATG (sugars k3 d1 m1 d8 k3, PS)”: the target mRNA inhibition (1 µM) amounted to 60%.

In turn, “TTAGTATAGTTATCTT (sugars k3 d9 k3 e1, PS)” registered a target mRNA inhibition (1 µM) of 45%.

Consider “CTGAAATTGATACACC (sugars k3 d9 k3 e1, PS)”, for which the target mRNA inhibition turned out to be 0% (0.02 µM); 17% (0.078 µM); 51% (0.313 µM); 75% (1 µM); 61% (1.25 µM); 81% (5 µM).

Where the note is “1 µM”, CTGTAGGCTAAACCCT (sugars k3 d10 k3, PS) displayed a target mRNA inhibition of 47%.

Sequence GAAATTTGTGAACCTG (sugars k3 d10 k3, PS) registered a target mRNA inhibition (1 µM) of 32%.

For AGGCTGTAAGAGTCAG (sugars k3 d10 k3, PS), where the note is “1 µM”, the target mRNA inhibition turned out to be 74%.

For the sequence ACTGTATTAAGACAGT (sugars k3 d10 k3, PS), the target mRNA inhibition (1 µM) came out at 20%.

Sequence GAAACTCACTTCCTAC (sugars k3 d10 k3, PS) gave a target mRNA inhibition (1 µM) of 56%.

TTGATCTCTTAGCTGT (sugars k3 d10 k3, PS) returned a target mRNA inhibition (1 µM) of 74%.

In turn, GTCCTAGGATGTTGAC (sugars k3 d10 k3, PS) came in with a target mRNA inhibition (1 µM) of 1%.

The sequence “AATGCTACTTGAACAG (sugars kkdddddddddkekek, PS)” had a target mRNA inhibition (1 µM) of 39%.

In turn, ACGATTGTTACATCAC (sugars k3 d10 k3, PS) showed a target mRNA inhibition (1 µM) of 53%.

The sequence AGATGGGCAAGGCCAC (sugars k3 d10 k3, PS) gave a target mRNA inhibition (1 µM) of 59%.

For the setting “1 µM”, TGTTTATGTAAGCACA (sugars k3 d10 k3, PS) returned a target mRNA inhibition of 74%.

Sequence TCTACCACATACGCAT (sugars k3 d10 k3, PS) had a target mRNA inhibition (1 µM) of 55%.

For the sequence ACTTCAGAGTTATACA (sugars k3 d10 k3, PS), the target mRNA inhibition (1 µM) was found to be 35%.

GCTAGTGCCAAACCAA (sugars k3 d10 k3, PS): the target mRNA inhibition is 0% (0.02 µM); 8% (0.078 µM); 39% (0.313 µM); 70% (1 µM); 65% (1.25 µM); 87% (5 µM).

In turn, “TGACAATGGTTGCCAC (sugars k3 d9 k3 e1, PS)” showed a target mRNA inhibition (1 µM) of 45%.

TTGTACCCTGTTCTCA (sugars k3 d10 k3, PS): for the setting “1 µM”, the target mRNA inhibition was 64%.

The sequence CCAATATGGGATGAGG (sugars k3 d10 k3, PS) had a target mRNA inhibition (1 µM) of 60%.
